Experimental data reported in patent US10240133B2, “ERK-derived peptides and uses thereof” (Yeda Research and Development Co. Ltd., priority 2013, dated 2019).
“Also recorded” adds a separate entry of the source.

How the values were obtained:
Elk1 = test: Western blotting of Elk1 phosphorylation; assay type: cell-based; settings: varied among the cell lines; EPE vs scrambled after TPA
Experimental: (A) EPE peptide prevents ERK1/2-importin7 interaction. HeLa cells were serum starved (0.1%, 16 hours), pretreated with EPE peptide, scrambled peptide (10 μM, 2 hours) or DMSO, and then stimulated with TPA (250 nM, 15 min). ERK1 were precipitated with αgERK1 Ab; importin7 co-immunoprecipitated with ERK1 was detected by WB with αimportin7 Ab. […] T47D, HeLa, MDA-MB-231 and A2352 cells were serum starved (0.1%, 16 hours), pretreated with EPE peptide, scrambled peptide (10 μM, 2 hours) or DMSO control, and then stimulated with TPA (250 nM, indicated times). Cell extracts were subjected to Western blot analysis with the indicated Abs. (C) EPE peptide inhibits phosphorylation of c-Myc and Elk1 in B-Raf melanomas. A2158 and A2352 cells were treated with scrambled and EPE peptide for two hours and then stimulated with the indicated concentration of TPA for 30 min. […] (D) Quantification of some of the results in B and C. […]
(i) Preparation of cellular extracts for Western Blotting: Cells were rinsed twice with ice-cold PBS and scraped into Radio-immunoprecipitation assay buffer (RIPA; 137 mM NaCl, 20 mM Tris (pH 7.4), 10% glycerol, 1% Triton X-100, 0.5% deoxycholate, 0.1% SDS, 2 mM EDTA, 1 mM PMSF, and 20 μM leupeptin). The extracts were centrifuged (20,000×g, 15 min, 4° C.), and the supernatants were further analyzed by Western blotting. […]

[1] = system: low passage A2352 B-Raf melanoma xenograft; test: Tumor xenograft growth; assay type: in vivo, SCID mice; settings: tail vein administration
Experimental: FIGS. 6A-6B illustrate that the EPE peptide prevents the growth of human tumor xenografts. CD-1 nude mice were inoculated with MDA-MB-231, LOXIMVI and HCT-116 cells, and SKID mice were inoculated with A2352 cells. Upon tumors establishment, the mice were treated intravenously with the DMSO as well as EPE or Scr peptides in the indicated doses, 3 times a week. The results are averages of 5 mice in each experimental group. The X, Y, Z dimensions of the tumors were measured with a caliper, and the volume was calculated accordingly. The significance of all experiments was at least P<0.001. (B) The EPE peptide prevents tumor recurrence on melanoma xenograft. SCID mice were inoculated with A2352 cells. Upon establishment of tumors mice were treated intravenously with 15 mg/kg EPE peptide (n=7) or intraperitonealy with 15 mg/kg PLX4032 (n=5), at the indicated dose 3 times a week. Tumor size was recorded at the same time using a caliper. Following 3 weeks of treatment, mice were kept for further evaluation monitoring for any tumor recurrence of the effective treated melanoma xenografts. Experiment was concluded 110 days post inoculation (11 weeks after the last treatment) and the overall state of the animals was evaluated. sac=sacrificed, recur=recurrence, met=metastasis.
Tumor dimensions were measured with a digital sliding caliper.

JNK2 and p38 = test: Nuclear translocation of other MAPKs (fluorescence microscopy); assay type: cell-based; settings: HeLa cells; TPA or anisomycin
Experimental: HeLa cells were serum-starved, pretreated with the EPE or Scr peptides, and then stimulated with either TPA (250 nM, 15 min), anisomycin (Anis, 10 μg/ml, 15 min) for the indicated times, or left untreated as control (NT). The cells were stained with αp38 or αgJNK Abs and DAPI. Scale bar—15 μm. (B) Extracts from cells treated as in A were analyzed by Western blotting with the indicated Abs.
Cells were fixed in 3% paraformaldehyde in PBS (20 min, 23° C.), and then permeabilized and blocked with 0.2% Triton X-100 in PBS-BSA (2%) for 20 min at 23° C. The fixed cells were sequentially incubated with appropriated Abs, (diluted in 10 μg/ml BSA/PBS) for 1 h, followed by either Cy-2 or rhodamine-conjugated secondary Abs and DAPI (diluted in BSA/PBS, 1:200) for 1 h. To follow the subcellular localization of the biotin-conjugated peptides, cells were incubated with Avidin-FITC (diluted in BSA/PBS 1:400) and DAPI. Slides were analyzed and photographed by a fluorescent microscope (Nikon, Japan, 600× magnification).

Question: With “GQLNHILGILGEPEQED (Synthetic peptide (EPE)) [EPE peptide, NTS-derived peptide with phosphomimetic EPE motif]” as the sequence, how does the “inhibition of phosphorylation of Elk1” value (Elk1) read?
Answer: 20-45%

Question: What about the “time to complete eradication of melanoma xenograft” value [1] of the same sequence?
Answer: ≤ 2 weeks

Question: What about the “translocation of other MAPKs (JNK2, p38)” value (JNK2 and p38) of the same sequence?
Answer: affected neither the translocation of other MAPKs; also recorded: does not affect the nuclear translocation of JNK2 and p38
